Values quoted from earlier work, collected in patent US6642179B2, “Inhibition of vegetative growth” (priority 2000, dated 2003).

System: grass
Conditions: versus 5-acetamido-2-methyltrifluoromethanesulfonanilide

CC(=O)Nc1cc(NS(=O)(=O)C(F)(F)F)c(C)cc1C [5-acetamido-2,4-dimethyltrifluoromethanesulfonanilide]
effectiveness as grass growth regulator compared with 5-acetamido-2-methyltrifluoromethanesulfonanilide: much more effective grass growth regulator
